Results as given in BindingDB's records for patent US20260034094 (Kojin Therapeutics, 2026).

target: T1, Glutamate--cysteine ligase catalytic subunit (Homo sapiens, UniProt P48506); assay: GCL Enzyme Profiling Assay
T1 sequence (P48506 whole entry): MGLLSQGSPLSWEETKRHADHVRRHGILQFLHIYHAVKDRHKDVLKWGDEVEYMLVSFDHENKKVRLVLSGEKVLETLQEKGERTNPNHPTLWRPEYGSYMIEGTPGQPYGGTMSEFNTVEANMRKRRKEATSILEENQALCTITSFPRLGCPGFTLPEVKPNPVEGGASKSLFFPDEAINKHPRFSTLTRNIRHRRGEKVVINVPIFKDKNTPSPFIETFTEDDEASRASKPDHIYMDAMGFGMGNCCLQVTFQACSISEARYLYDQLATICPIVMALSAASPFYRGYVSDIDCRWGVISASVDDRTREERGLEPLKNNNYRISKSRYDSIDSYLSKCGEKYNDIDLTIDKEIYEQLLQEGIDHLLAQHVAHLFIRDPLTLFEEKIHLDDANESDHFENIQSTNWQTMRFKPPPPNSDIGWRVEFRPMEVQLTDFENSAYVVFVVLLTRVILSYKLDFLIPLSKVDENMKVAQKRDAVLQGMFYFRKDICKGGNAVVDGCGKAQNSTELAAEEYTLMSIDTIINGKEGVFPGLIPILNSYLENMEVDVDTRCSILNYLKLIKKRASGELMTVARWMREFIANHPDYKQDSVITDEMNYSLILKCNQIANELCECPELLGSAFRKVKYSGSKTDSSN
Protocol: Compound in pure DMSO was stamped in assay plates (Greiner black 384-well) or appropriate containers using a D300e digital dispenser (TECAN) and the final DMSO concentration was normalized to 1%. A 5 mL, or in the present case, 5 μL mixture of human recombinant GCL (final concentration: 5 nM) and ATP (final concentration: 0.6 mM) was added and the solution was incubated at room temperature (22° C.) for 1 h. […] The reaction was stopped after 1 h or in the present case, 2 h by addition of 5 mL, or in the present case, 5 μL ADP GLO Reagent (Promega). The resulting solution was incubated for 2 h at room temperature. This was then followed by addition of 5 mL, or in the present case, 5 μL ADP GLO Detection. After incubation at room temperature for 30 min, the plates were read on a plate reader (PheraStar) using a luminescence protocol to quantify the GCL enzyme activity from each reaction solution.

Row | IC50 [µM] | Compound
1 | < 20 | Cc1ccc(-c2ccc(C(O)(CCS(=N)(=O)CC[C@H](N)C(=O)O)C(F)(F)F)cc2)c(Cl)c1 (stereo partly drawn) [US20260034094, Compound 432]
2 | < 20 | Cn1ncc(-c2ccc(C(O)(CCS(=N)(=O)CC[C@H](N)C(=O)O)C(F)(F)F)cc2)cc1=O (stereo partly drawn) [US20260034094, Compound 433]
3 | < 20 | N=S(=O)(CC[C@H](N)C(=O)O)CCC(O)(c1cccc(-c2ccccc2)c1)C(F)(F)F (stereo partly drawn) [US20260034094, Compound 435]
4 | < 20 | Cc1ccc(-c2ccc(C(O)(CCS(=N)(=O)CC[C@H](N)C(=O)O)C(F)(F)F)cc2)c(F)c1 (stereo partly drawn) [US20260034094, Compound 437]
5 | < 20 | Cc1cc(C(O)(CCS(=N)(=O)CC[C@H](N)C(=O)O)C(F)(F)F)ccc1-c1ccc(Cl)cc1Cl (stereo partly drawn) [US20260034094, Compound 443]
6 | < 20 | N=S(=O)(CC[C@H](N)C(=O)O)CCC(O)(c1ncc(-c2ccc(Cl)cc2Cl)cn1)C(F)(F)F (stereo partly drawn) [US20260034094, Compound 462]
7 | < 20 | N=S(=O)(CC[C@H](N)C(=O)O)CCC(O)(c1ncc(-c2ccccc2)cn1)C(F)(F)F (stereo partly drawn) [US20260034094, Compound 467]
8 | < 20 | N[C@@H](CCS(=O)(=O)CCC(O)(c1ncc(-c2ccc(Cl)cc2Cl)cn1)C(F)(F)F)C(=O)O (stereo partly drawn) [US20260034094, Compound 470]
9 | < 20 | Cc1ccccc1-c1ccc(C(O)(CCS(=N)(=O)CC[C@H](N)C(=O)O)C(F)(F)F)nc1 (stereo partly drawn) [US20260034094, Compound 471]
10 | < 20 | Cn1cc(-c2ccc(C(O)(CCS(=N)(=O)CC[C@H](N)C(=O)O)C(F)(F)F)nc2)cn1 (stereo partly drawn) [US20260034094, Compound 472]
11 | < 20 | Cc1cc(Cl)ccc1-c1cnc(C(O)(CCS(=N)(=O)CC[C@H](N)C(=O)O)C(F)(F)F)nc1 (stereo partly drawn) [US20260034094, Compound 474]
12 | < 20 | N=S(=O)(CC[C@H](N)C(=O)O)CCC(O)(c1ccc(C2CCCCC2)cn1)C(F)(F)F (stereo partly drawn) [US20260034094, Compound 476]
13 | < 20 | N=S(=O)(CC[C@H](N)C(=O)O)CCC(O)(c1ccc(-c2ccco2)cn1)C(F)(F)F (stereo partly drawn) [US20260034094, Compound 481]
